In ChEMBL document CHEMBL4828744, “Design, synthesis and biological evaluation of pyridinylmethylenepiperidine derivatives as potent 5-HT1F receptor agonists for migraine therapy” (Eur J Med Chem, 2021):
pEC50, pIC50: −log10 of the molar value.

How the values were obtained:
[1] = AUC (0 to 24hrs) in Sprague-Dawley rat at 50 mg/kg, ig by LC-MS/MS analysis; format: ADME, organism-based; set-up: time < 24 hr, route intragastric, dose 50 mg/kg; settings: in vivo, po
[2] = target: T1, 5-hydroxytryptamine receptor 1F (Homo sapiens, UniProt P30939); test: Agonist activity at 5HT1F receptor (unknown origin) expressed in HEK293 cells measured after 60 mins by Fluo-4AM dye based FLIPR assay; format: functional, cell-based; settings: read-out: IC50 (the source's name)
T1 sequence (P30939 whole entry): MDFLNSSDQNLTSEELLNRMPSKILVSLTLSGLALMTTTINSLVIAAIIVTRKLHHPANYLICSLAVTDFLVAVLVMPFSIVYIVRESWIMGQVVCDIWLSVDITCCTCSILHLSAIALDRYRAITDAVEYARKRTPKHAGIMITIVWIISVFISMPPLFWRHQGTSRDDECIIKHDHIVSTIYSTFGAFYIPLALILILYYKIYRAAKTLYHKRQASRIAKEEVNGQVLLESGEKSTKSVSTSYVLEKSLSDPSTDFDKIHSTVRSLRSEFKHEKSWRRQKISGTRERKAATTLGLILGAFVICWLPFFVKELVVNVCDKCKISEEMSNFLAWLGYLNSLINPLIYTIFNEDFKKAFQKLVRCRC

Homo sapiens [3] = species on record: Homo sapiens; test: Selectivity ratio of IC50 for human 5HT3 receptor to IC50 for human 5HT1F receptor
[4] = Half life in Sprague-Dawley rat at 1 mg/kg, iv measured for 24 hrs by LC-MS/MS analysis; format: ADME, organism-based; settings: in vivo
[5] = AUC (0 to 24hrs) in monkey at 25 mg/kg, ig by LC-MS/MS analysis; format: ADME, organism-based, Macaca mulatta; set-up: time < 24 hr, route intragastric, dose 25 mg/kg; settings: rhesus monkey, in vivo, po
[6] = Cmax in Sprague-Dawley rat at 50 mg/kg, ig administered for 28 days by LC-MS/MS analysis; format: ADME, organism-based; set-up: route intragastric, time 28 day, dose 50 mg/kg; settings: in vivo, po
[7] = AUC(0 to t) in Sprague-Dawley rat at 5 mg/kg, ig measured for 24 hrs by LC-MS/MS analysis; format: ADME, organism-based; set-up: time 24 hrs, dose 5 mg/kg; settings: in vivo, po
[8] = target: 5-hydroxytryptamine receptor 2B (Homo sapiens, UniProt P41595); test: Binding affinity to human 5HT2B receptor
Chain of 5-hydroxytryptamine receptor 2B (P41595 whole entry): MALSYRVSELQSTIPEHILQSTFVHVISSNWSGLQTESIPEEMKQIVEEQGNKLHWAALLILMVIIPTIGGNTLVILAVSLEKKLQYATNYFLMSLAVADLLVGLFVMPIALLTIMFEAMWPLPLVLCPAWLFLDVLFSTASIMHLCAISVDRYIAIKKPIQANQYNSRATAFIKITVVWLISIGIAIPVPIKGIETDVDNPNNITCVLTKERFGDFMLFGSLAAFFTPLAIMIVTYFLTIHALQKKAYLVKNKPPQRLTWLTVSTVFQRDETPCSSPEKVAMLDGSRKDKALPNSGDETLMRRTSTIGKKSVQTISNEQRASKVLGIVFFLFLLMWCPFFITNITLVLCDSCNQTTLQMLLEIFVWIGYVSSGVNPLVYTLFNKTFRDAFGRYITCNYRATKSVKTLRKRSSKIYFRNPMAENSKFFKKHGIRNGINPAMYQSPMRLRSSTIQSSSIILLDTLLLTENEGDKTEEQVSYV

[9] = Toxicity in Sprague-Dawley rat assessed as effect on body weight at 150 mg/kg/day, ig administered for 28 days; format: organism-based; settings: in vivo, po, 672 h, time 28 day
[10] = target: T2, 5-hydroxytryptamine receptor 1A (Homo sapiens, UniProt P08908); test: Binding affinity to human 5HT1A receptor
T2 sequence (P08908 whole entry): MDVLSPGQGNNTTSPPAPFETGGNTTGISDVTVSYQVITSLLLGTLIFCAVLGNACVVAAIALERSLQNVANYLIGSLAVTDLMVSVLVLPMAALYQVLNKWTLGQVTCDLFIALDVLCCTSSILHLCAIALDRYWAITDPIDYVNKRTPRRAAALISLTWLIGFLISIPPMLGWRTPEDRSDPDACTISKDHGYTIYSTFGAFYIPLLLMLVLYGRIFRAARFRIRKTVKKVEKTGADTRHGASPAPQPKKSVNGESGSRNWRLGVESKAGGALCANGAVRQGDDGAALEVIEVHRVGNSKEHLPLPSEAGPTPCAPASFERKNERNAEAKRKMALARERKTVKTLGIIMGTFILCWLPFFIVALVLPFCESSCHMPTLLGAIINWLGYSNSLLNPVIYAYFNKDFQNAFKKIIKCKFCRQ

[11] = Cmax in Sprague-Dawley rat at 5 mg/kg, ig measured for 24 hrs by LC-MS/MS analysis; format: ADME, organism-based; set-up: route intragastric, time 24 hrs, dose 5 mg/kg; settings: in vivo, po
Homo sapiens [12] = species on record: Homo sapiens; test: Selectivity ratio of IC50 for human 5HT2A receptor to IC50 for human 5HT1F receptor
[13] = AUC (0 to 24hrs) in Sprague-Dawley rat at 15 mg/kg, ig by LC-MS/MS analysis; format: ADME, organism-based; set-up: time < 24 hr, route intragastric, dose 15 mg/kg; settings: in vivo, po
[14] = Cmax in monkey at 25 mg/kg, ig administered for 28 days by LC-MS/MS analysis; format: ADME, organism-based, Macaca mulatta; set-up: route intragastric, dose 25 mg/kg, time 28 day; settings: rhesus monkey, in vivo, po
[15] = Cmax in monkey at 1 mg/kg, ig administered for 28 days by LC-MS/MS analysis; format: ADME, organism-based, Macaca mulatta; set-up: route intragastric, dose 1 mg/kg, time 28 day; settings: rhesus monkey, in vivo, po
[16] = AUC (0 to 24hrs) in monkey at 5 mg/kg, ig by LC-MS/MS analysis; format: ADME, organism-based, Macaca mulatta; set-up: time < 24 hr, route intragastric, dose 5 mg/kg; settings: rhesus monkey, in vivo, po
[17] = Toxicity in NewZealand rabbit Saphenous vein rings assessed as induction of vasoconstriction at 0.01 to 100 uM; format: tissue-based, Oryctolagus cuniculus; settings: dose 0.01-100 µM
[18] = target: 5-HT1B/5-HT1F (Homo sapiens) (UniProt P30939+P28222); test: Selectivity ratio of IC50 for human 5HT1B receptor to IC50 for human 5HT1F receptor; format: protein assay
Chain of 5-HT1B/5-HT1F (Homo sapiens) (P28222 whole entry, looked up, one chain of several): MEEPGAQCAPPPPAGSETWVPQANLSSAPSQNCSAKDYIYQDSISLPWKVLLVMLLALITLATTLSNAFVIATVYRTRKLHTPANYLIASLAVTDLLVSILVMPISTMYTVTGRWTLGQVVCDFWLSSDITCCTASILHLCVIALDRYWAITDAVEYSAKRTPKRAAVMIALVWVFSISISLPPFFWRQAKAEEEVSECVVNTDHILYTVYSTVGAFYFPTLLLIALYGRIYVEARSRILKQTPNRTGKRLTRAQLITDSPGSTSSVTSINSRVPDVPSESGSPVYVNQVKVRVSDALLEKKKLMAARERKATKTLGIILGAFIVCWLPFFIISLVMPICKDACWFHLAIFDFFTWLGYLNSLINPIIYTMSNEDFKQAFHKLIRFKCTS

[19] = Toxicity in Sprague-Dawley rat assessed as effect on inflammatory reaction at 150 mg/kg/day, ig administered for 28 days; format: organism-based; settings: in vivo, po, 672 h, time 28 day
[20] = Toxicity in Sprague-Dawley rat assessed as effect on food intake at 150 mg/kg/day, ig administered for 28 days; format: organism-based; settings: in vivo, po, 672 h, time 28 day
[21] = Clearance in Sprague-Dawley rat at 1 mg/kg, iv measured for 24 hrs by LC-MS/MS analysis; format: ADME, organism-based; settings: in vivo
[22] = target: T3, 5-hydroxytryptamine receptor 1F (Homo sapiens) (UniProt P30939); test: Potency index, ratio of lasmiditan EC50 to test compound EC50 for agonist activity at 5HT1F receptor (unknown origin) expressed in HEK293 cells measured after 60 mins by Fluo-4AM dye based FLIPR assay; format: functional, cell-based
T3 sequence (whole entry): T1 sequence (P30939 whole entry)

[23] = Toxicity in ig dosed Sprague-Dawley rat administered for 28 days; format: organism-based; settings: in vivo, po, time 28 day
[24] = target: 5-hydroxytryptamine receptor 1B (Homo sapiens, UniProt P28222); test: Binding affinity to human 5HT1B receptor
Chain of 5-hydroxytryptamine receptor 1B (P28222 whole entry): as the sequence (P28222 whole entry, looked up, one chain of several) above

[25] = AUC(0 to t) in Sprague-Dawley rat at 1 mg/kg, iv measured for 24 hrs by LC-MS/MS analysis; format: ADME, organism-based; set-up: time 24 hrs, dose 1 mg/kg; settings: in vivo
[26] = target: 5-HT1A/5-HT1F (Homo sapiens) (UniProt P30939+P08908); test: Selectivity ratio of IC50 for human 5HT1A receptor to IC50 for human 5HT1F receptor; format: protein assay
[27] = Volume of distribution at steady state in Sprague-Dawley rat at 1 mg/kg, iv measured for 24 hrs by LC-MS/MS analysis; format: ADME, organism-based; settings: in vivo, read-out: Vdss
[28] = target: 5-hydroxytryptamine receptor 2A (Homo sapiens, UniProt P28223); test: Binding affinity to human 5HT2A receptor
Chain of 5-hydroxytryptamine receptor 2A (P28223 whole entry): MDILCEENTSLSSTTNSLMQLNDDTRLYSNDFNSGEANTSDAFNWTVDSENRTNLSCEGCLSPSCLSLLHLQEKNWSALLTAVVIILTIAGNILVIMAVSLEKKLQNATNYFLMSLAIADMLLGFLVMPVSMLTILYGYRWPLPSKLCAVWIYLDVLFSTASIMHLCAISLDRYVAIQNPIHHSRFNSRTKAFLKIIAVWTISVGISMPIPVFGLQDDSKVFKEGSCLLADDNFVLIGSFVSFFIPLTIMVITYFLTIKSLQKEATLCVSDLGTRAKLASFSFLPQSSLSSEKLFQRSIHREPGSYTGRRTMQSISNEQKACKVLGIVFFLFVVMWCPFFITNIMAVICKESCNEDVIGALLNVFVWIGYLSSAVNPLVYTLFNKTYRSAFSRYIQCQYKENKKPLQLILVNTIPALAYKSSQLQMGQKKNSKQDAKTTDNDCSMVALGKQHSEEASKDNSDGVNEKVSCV

[29] = Cmax in Sprague-Dawley rat at 1 mg/kg, iv measured for 24 hrs by LC-MS/MS analysis; format: ADME, organism-based; set-up: route intravenous, dose 1 mg/kg, time 24 hrs; settings: in vivo
Homo sapiens [30] = species on record: Homo sapiens; test: Selectivity ratio of IC50 for human 5HT2C receptor to IC50 for human 5HT1F receptor
Homo sapiens [31] = species on record: Homo sapiens; test: Selectivity ratio of IC50 for human 5HT2B receptor to IC50 for human 5HT1F receptor
[32] = AUC (0 to 24hrs) in monkey at 1 mg/kg, ig by LC-MS/MS analysis; format: ADME, organism-based, Macaca mulatta; set-up: time < 24 hr, route intragastric, dose 1 mg/kg; settings: rhesus monkey, in vivo, po
[33] = Cmax in Sprague-Dawley rat at 15 mg/kg, ig administered for 28 days by LC-MS/MS analysis; format: ADME, organism-based; set-up: route intragastric, dose 15 mg/kg, time 28 day; settings: in vivo, po

CN1CCC(=C(F)c2cccc(NC(=O)c3c(F)cc(F)cc3F)n2)CC1
AUC(0-t) at 24 h [1]: 5290 ng·h/mL
pEC50 [2]: 7.71
Ratio IC50 (Homo sapiens [3]): > 10000
half-life [4]: 1.33 h
AUC(0-t) at 24 h [5]: 67400 ng·h/mL
Cmax [6]: 523 ng/mL
AUC(0-t) at 24 h [7]: 404 ng·h/mL
pIC50 [8]: 5.07
Activity [9]: Non-Toxic
pIC50 [10]: 6.82
Cmax [11]: 88 ng/mL
Ratio IC50 (Homo sapiens [12]): > 10000
AUC(0-t) at 24 h [13]: 849 ng·h/mL
Cmax [14]: 3630 ng/mL
Cmax [15]: 764 ng/mL
AUC(0-t) at 24 h [16]: 45200 ng·h/mL
Activity [17]: Non-Toxic
Ratio IC50 [18]: > 10000
Activity [19]: Non-Toxic
Activity [20]: Non-Toxic
clearance [21]: 127 mL/min/kg
Ratio EC50 [22]: 4
NOAEL at 672 h [23]: 50 mg/kg/day
pIC50 [24]: 5.67
AUC(0-t) at 24 h [25]: 128 ng·h/mL
Ratio IC50 [26]: 472
Vd [27]: 12.8 L/kg
pIC50 [28]: 5.31
Cmax [29]: 110 ng/mL
Ratio IC50 (Homo sapiens [30]): > 10000
Ratio IC50 (Homo sapiens [31]): > 10000
AUC(0-t) at 24 h [32]: 3200 ng·h/mL
Cmax [33]: 160 ng/mL
